Experiment [1] deals with T1, SARS-CoV-2 PLpro (nsp3 1564–1878) (Severe acute respiratory syndrome coronavirus 2, UniProt P0DTD1). The experiment is described as follows: biochemical. The note with it: low concentration screen, read-out: % of control remaining. The arrangement: FRET-quenched peptide (Pro3) cleavage by PLpro, 10 min pre-incubation, slope over 20 min, normalised to no-compound control.

Experiment [2] deals with T1, SARS-CoV-2 PLpro (nsp3 1564–1878). The experiment is described as follows: biochemical. More on the design: FRET-quenched peptide (Pro3) cleavage by PLpro, 10 min pre-incubation, slope over 20 min, normalised to no-compound control. Conditions: high concentration screen, read-out: % of control remaining.

Counter-ions that a name gives are not always drawn. Like-named read-outs stand apart in the source and are kept apart here.

For `NC/C=C/C(=O)O` [(E)-4-amino-2-butenoic acid], in experiment [1] (Well no.=1283), the remaining activity at 1.25 µM worked out at 103%. Moreover, the remaining activity at 3.75 µM in experiment [2] (Well no.=1283) was determined as 101%.
As to `O=c1[nH]c(=O)n([C@H]2C[C@H](O)[C@@H](CO)O2)cc1/C=C/Br` [(E)-5-(2-Bromovinyl)-2'-deoxyuridine], the remaining activity at 1.25 µM in experiment [1] (Well no.=83) is 94.9%. Also, the remaining activity at 3.75 µM in experiment [2] (Well no.=83) is 94.4%.
For `Clc1ccc(N/N=C(\c2ccccc2)c2ccccn2)nc1` [(E)-5-chloro-2-(2-(phenyl(pyridin-2-yl)methylene)hydrazinyl)pyridine], the remaining activity at 1.25 µM in experiment [1] (Well no.=5428) came to 91.3%. In addition, the remaining activity at 3.75 µM in experiment [2] (Well no.=5428) came out at 96.4%.
Consider `COc1cc(/C=C/C(=O)NCCn2c(C)cc3ccccc32)cc(OC)c1OC` [(E)-N-(2-(2-methyl-1H-indol-1-yl)ethyl)-3-(3,4,5-trimethoxyphenyl)acrylamide], for which the remaining activity at 1.25 µM in experiment [1] (Well no.=5914) was found to be 103%. Further, the remaining activity at 3.75 µM in experiment [2] (Well no.=5914) turned out to be 99.4%.
Turning to `O=C(O)[C@H]1Cc2ccccc2CN1` [(R)-1,2,3,4-Tetrahydro-3-isoquinolinecarboxylic acid], the remaining activity at 1.25 µM in experiment [1] (Well no.=8608) was found to be 102%. Moreover, the remaining activity at 3.75 µM in experiment [2] (Well no.=8608) was 101%.
With `CC(C)C[C@@H](C(=O)O)c1cc(-c2ccc(C(F)(F)F)cc2)cc(-c2ccc(C(F)(F)F)cc2)c1` [(R)-2-(4,4''-bis(trifluoromethyl)-[1,1':3',1''-terphenyl]-5'-yl)-4-methylpentanoic acid], in experiment [1] (Well no.=5455), the remaining activity at 1.25 µM came to 99.6%. Besides, the remaining activity at 3.75 µM in experiment [2] (Well no.=5455) was 106%.
Regarding `COc1ccc(CC[C@H]2CCC[C@@H](CCc3ccc(OC)cc3)N2C[C@@H](O)CO)cc1` [(R)-3-((2R,6S)-2,6-bis(4-methoxyphenethyl)piperidin-1-yl)propane-1,2-diol hydrochloride], in experiment [1] (Well no.=5614), the remaining activity at 1.25 µM turned out to be 101%. The remaining activity at 3.75 µM in experiment [2] (Well no.=5614) was 102%.
As to `C[C@@H](O)CC(=O)O` [(R)-3-Hydroxybutanoic acid], the remaining activity at 1.25 µM in experiment [1] (Well no.=7123) turned out to be 106%. Moreover, the remaining activity at 3.75 µM in experiment [2] (Well no.=7123) is 105%.
Take `CC(C)N(CC[C@H](c1ccccc1)c1cc(CO)ccc1O)C(C)C` [(R)-5-Hydroxymethyl Tolterodine]: the remaining activity at 1.25 µM in experiment [1] (Well no.=7038) turned out to be 107%. The remaining activity at 3.75 µM in experiment [2] (Well no.=7038) turned out to be 107%.
Take `[2H]C([2H])([2H])NC[C@H](O)c1cccc(O)c1` [(R)-(-)-Phenylephrine (hydrochloride)]: the remaining activity at 1.25 µM in experiment [1] (Well no.=6707) was determined as 98.6%. Moreover, in experiment [2] (Well no.=6707), the remaining activity at 3.75 µM amounted to 95.4%.
In the case of `NCc1c[nH]c(=S)n1[C@@H]1CCc2c(F)cc(F)cc2C1` [(R)-Nepicastat HCl], the remaining activity at 1.25 µM in experiment [1] (Well no.=8886) was found to be 91.4%. In addition, the remaining activity at 3.75 µM in experiment [2] (Well no.=8886) was 92%.
With `N[C@H](CO)C(=O)O` [(R)-Serine], the remaining activity at 1.25 µM in experiment [1] (Well no.=7739) is 99.9%. Further, in experiment [2] (Well no.=7739), the remaining activity at 3.75 µM stood at 100%.
As for `O[C@H](c1cc(C(F)(F)F)nc2c(C(F)(F)F)cccc12)[C@@H]1CCCCN1` [(R)-[2,8-bis(trifluoromethyl)-4-quinolinyl][(2S)-2-piperidinyl]methanol hydrochloride], the remaining activity at 1.25 µM in experiment [1] (Well no.=5875) worked out at 105%. In addition, the remaining activity at 3.75 µM in experiment [2] (Well no.=5875) came to 113%.
For the compound `NC[C@H](CC(=O)O)c1ccc(Cl)cc1` [(R)-baclofen], the remaining activity at 1.25 µM in experiment [1] (Well no.=5315) came to 96.9%. For the same compound, the remaining activity at 3.75 µM in experiment [2] (Well no.=5315) came to 93.5%.
Consider `O=C(O)[C@H]1CCCN1` [(R)-pyrrolidine-2-carboxylic acid], for which the remaining activity at 1.25 µM in experiment [1] (Well no.=8700) was determined as 106%. In addition, the remaining activity at 3.75 µM in experiment [2] (Well no.=8700) worked out at 101%.
For `O=C(O)[C@@H](O)Cc1ccccc1` [(S)-2-Hydroxy-3-phenylpropanoic acid], the remaining activity at 1.25 µM in experiment [1] (Well no.=7173) was determined as 96.3%. Moreover, the remaining activity at 3.75 µM in experiment [2] (Well no.=7173) was 88.8%.
`O=C(O)C[C@H](O)C(=O)O` [(S)-2-Hydroxysuccinic acid]: the remaining activity at 1.25 µM in experiment [1] (Well no.=6825) was found to be 105%. The remaining activity at 3.75 µM in experiment [2] (Well no.=6825) came out at 100%.
Turning to `N[C@H](C(=O)O)c1cc(O)cc(O)c1` [(S)-3,5-Dihydroxyphenylglycine], the remaining activity at 1.25 µM in experiment [1] (Well no.=401) was found to be 102%. Besides, the remaining activity at 3.75 µM in experiment [2] (Well no.=401) came out at 98.7%.
Regarding `C[C@H](NC(=O)CC=C1NC(=O)c2ccccc2N1)c1ccccc1` [(S)-3-(4-oxo-3,4-dihydroquinazolin-2(1H)-ylidene)-N-(1-phenylethyl)propanamide], in experiment [1] (Well no.=6083), the remaining activity at 1.25 µM was 95.2%. Also, the remaining activity at 3.75 µM in experiment [2] (Well no.=6083) was determined as 95.2%.
Regarding `C[C@H](O)CC(=O)O` [(S)-3-Hydroxybutanoic acid], the remaining activity at 1.25 µM in experiment [1] (Well no.=7301) came out at 109%. For the same compound, the remaining activity at 3.75 µM in experiment [2] (Well no.=7301) worked out at 105%.
In the case of `Cc1ncc(Cl)cc1NCc1ccc(C(=O)N[C@@H](CC2CCCC2)C(=O)NC2CC2)s1` [(S)-5-(((5-chloro-2-methylpyridin-3-yl)amino)methyl)-N-(3-cyclopentyl-1-(cyclopropylamino)-1-oxopropan-2-yl)thiophene-2-carboxamide], the remaining activity at 1.25 µM in experiment [1] (Well no.=5550) was found to be 94.4%. In experiment [2] (Well no.=5550), the remaining activity at 3.75 µM was found to be 99.3%.
In the case of `O=C(O)c1ccc(NC(=O)[C@H](CC2CCCC2)n2cnc(C(F)(F)F)c2)nc1` [(S)-6-(3-cyclopentyl-2-(4-(trifluoromethyl)-1H-imidazol-1-yl)propanamido)nicotinic acid], in experiment [1] (Well no.=6066), the remaining activity at 1.25 µM was determined as 83%. For the same compound, the remaining activity at 3.75 µM in experiment [2] (Well no.=6066) is 86.8%.
As for `CC[C@@]1(O)C(=O)OCc2c1cc1n(c2=O)Cc2cc3ccccc3nc2-1` [(S)-(+)-Camptothecin], in experiment [1] (Well no.=483), the remaining activity at 1.25 µM came to 100%. In addition, in experiment [2] (Well no.=483), the remaining activity at 3.75 µM is 90.7%.
As for `CCN1CCC[C@H]1CNC(=O)c1cc(S(N)(=O)=O)ccc1OC` [(S)-(-)-Sulpiride], the remaining activity at 1.25 µM in experiment [1] (Well no.=1636) was found to be 98.3%. Further, the remaining activity at 3.75 µM in experiment [2] (Well no.=1636) was 103%.
In the case of `CCCNC[C@H](O)COc1ccccc1C(=O)CCc1ccccc1` [(S)-(-)-propafenone hydrochloride], the remaining activity at 1.25 µM in experiment [1] (Well no.=1451) came to 96.2%. For the same compound, the remaining activity at 3.75 µM in experiment [2] (Well no.=1451) was 93.6%.
Take `OC[C@H]1O[C@@H](n2cnc3c(N[C@@H]4C[C@H]5CC[C@H]4C5)ncnc32)[C@H](O)[C@@H]1O` [(S)-ENBA]: the remaining activity at 1.25 µM in experiment [1] (Well no.=465) was 102%. Besides, the remaining activity at 3.75 µM in experiment [2] (Well no.=465) is 105%.
Turning to `N[C@@H](CCC(=O)O)C(=O)O` [(S)-Glutamic acid], the remaining activity at 1.25 µM in experiment [1] (Well no.=6165) is 98.9%. Also, in experiment [2] (Well no.=6165), the remaining activity at 3.75 µM amounted to 96.9%.
Regarding `CC(C)C[C@H](O)C(=O)O` [(S)-Leucic acid], in experiment [1] (Well no.=6633), the remaining activity at 1.25 µM stood at 108%. Also, the remaining activity at 3.75 µM in experiment [2] (Well no.=6633) worked out at 109%.
With `Cc1[nH]c2ccccc2c1CC(=O)N[C@@H](Cc1ccccc1)C(=O)N(C)c1ccccc1` [(S)-N-methyl-2-(2-(2-methyl-1H-indol-3-yl)acetamido)-N,3-diphenylpropanamide], the remaining activity at 1.25 µM in experiment [1] (Well no.=5917) came out at 106%. Moreover, the remaining activity at 3.75 µM in experiment [2] (Well no.=5917) was found to be 103%.
As for `CC(C)(C)NC[C@H](O)COc1nsnc1N1CCOCC1` [(S)-Timolol (Maleate)], the remaining activity at 1.25 µM in experiment [1] (Well no.=7667) was determined as 92.8%. Further, the remaining activity at 3.75 µM in experiment [2] (Well no.=7667) was 94.8%.

The values above are taken from paper PMC8286840, “Identifying SARS-CoV-2 antiviral compounds by screening for small molecule inhibitors of Nsp3 papain-like protease” (Biochemical Journal, 2021).
